SMILES strings stand for the structures.

The values below come from ChEMBL document CHEMBL1145594, “Carbonic anhydrase inhibitors: design of spin-labeled sulfonamides incorporating TEMPO moieties as probes for cytosolic or transmembrane isozymes” (Bioorg Med Chem Lett, 2008).

The assay deals with Carbonic anhydrase 9 (Homo sapiens, UniProt Q16790).
Description: Inhibition of human cloned carbonic anhydrase 9 by CO2 hydration stopped-flow assay
As usually defined, the Ki is a dissociation constant, usually derived from enzyme kinetics or from competition with a known ligand. A high value points to lower affinity. The compound `CC1(C)CC(NC(=S)Nc2ccc(S(=O)(=O)NCCc3ccc(S(N)(=O)=O)cc3)cc2)CC(C)(C)N1[O]` had an inhibition constant (Ki) of 41 nM. `CC1(C)CC(NC(=S)NCc2ccc(S(N)(=O)=O)cc2)CC(C)(C)N1[O]`: the inhibitory constant (Ki) was 35 nM. As to `CC1(C)CC(NC(=S)Nc2ccc(S(N)(=O)=O)cc2Cl)CC(C)(C)N1[O]`, the Ki came to 14 nM.

`CC1(C)CC(NC(=S)Nc2ccc(S(=O)(=O)NCc3ccc(S(N)(=O)=O)cc3)cc2)CC(C)(C)N1[O]` came in with an inhibitory constant (Ki) of 7 nM. The value for `CC1(C)CC(NC(=S)NCCc2ccc(S(N)(=O)=O)cc2)CC(C)(C)N1[O]` was 39 nM; that for `CC1(C)CC(NC(=S)Nc2ccc(S(N)(=O)=O)cc2F)CC(C)(C)N1[O]` was 22 nM; that for `CC1(C)CC(NC(=S)Nc2ccc(S(=O)(=O)Nc3cccc(S(N)(=O)=O)c3)cc2)CC(C)(C)N1[O]` was 220 nM. Compound `CC1(C)CC(NC(=S)Nc2ccc(S(=O)(=O)Nc3ccc(S(N)(=O)=O)cc3)cc2)CC(C)(C)N1[O]` had a Ki of 30 nM. The value for `CC1(C)CC(NC(=S)Nc2cccc(S(N)(=O)=O)c2)CC(C)(C)N1[O]` was 132 nM.
